{
  "source": "paper PMC4519959",
  "about": "“Baicalin Protects Mice from Aristolochic Acid I-Induced Kidney Injury by Induction of CYP1A through the Aromatic Hydrocarbon Receptor” (International Journal of Molecular Sciences, 2015)",
  "key": {"[1]": {"system": "AAI-induced renal damage", "assay": "AAI nephrotoxicity in mice (serum BUN, CRE, kidney H&E histopathology)", "type": "in vivo, C57BL/6 mice", "source_text": "Mice were pretreated with baicalin for three days.\nFigure 2 Effects of baicalin on aristolochic acid I (AAI) nephrotoxicity. Blood samples were collected to obtain serum for the measurement of blood urea nitrogen (BUN) (A) and creatinine (CRE) (B); (C) Kidneys were collected to perform hematoxylin and eosin (H&E) staining. Arrowheads, tubular dilation; stars, tubular necrosis and granular casts. Scale bar, 100 μm.\nMale C57BL/6 mice (6–7 weeks old, 20–22 g) were obtained from Shanghai Laboratory Animal Center. All animal experiments were approved by the Shanghai Animal Care and Use Committee (Certificate No. SCXK [Shanghai] 2002-0010). […] Each group received different treatments as defined in Figure 7. Blood and liver tissues were collected and stored at −80 °C until use. Serum blood urea nitrogen (BUN) and creatinine (CRE) were measured by an automatic HITACHI Clinical Analyzer Model 7080 (Hitachi, Tokyo, Japan).\nKidneys were collected at the indicated time points and fixed in 10% formalin solution before being embedded in paraffin for sectioning into 5-μm-thick sections. Sections were stained with hematoxylin and eosin (H&E) using standard pathology procedures and evaluated by a pathologist as described previously."}, "[2]": {"assay": "Pharmacokinetics of AAI and AAIa in mouse plasma (HPLC)", "type": "in vivo, C57BL/6 mice", "conditions": "for AUC / Cmax / Tmax / t1/2: AAI in mouse plasma", "source_text": "AAIa is the major metabolite of AAI oxidative metabolism by CYP1A. We studied the pharmacokinetics of AAI and its metabolites in vivo. […] Simultaneously, the level of AAIa, the major metabolite of AAI, was higher in the plasma of the baicalin-pretreated group than that in the AAI group (Figure 3B).\n(§1) Figure 3 Levels of AAI and its major metabolite AAIa in the plasma, liver, and kidney. Blood samples were collected from mice at the indicated time points after AAI injection. Plasma levels of AAI (A) and AAIa (B) were measured by high-performance liquid chromatography (HPLC); Tissue samples from mice were collected at 30 min after AAI injection to determine the levels of AAI (C) and AAIa (D).\n(§2) Blood samples (40 μL each) were collected in heparin-coated capillaries and mixed with 50 μL saline. The samples were spun at 3000× g for 10 min at 4 °C. Tissue samples were homogenized in saline and spun at 14,000× g for 10 min, and the supernatants were then mixed with 100 μg/mL (final concentration) indomethacin (internal standard, IS) and 2 volumes of methanol and spun again at 14,000× g for 5 min to remove precipitated proteins. Aliquots of the final supernatants were analyzed and quantified for the levels of AAI and its metabolite AAIa by high-performance liquid chromatography (HPLC), as described below.\nThe quantification of AAI and its metabolite AAIa was carried out with a Waters 9625 HPLC system (Sunnyvale, CA, USA). For AAI, the linear ranges of the calibration curves were 0–100 μg/mL in the plasma, liver, and kidney, the regression equations were y = 32.186x + 1.1609 (r^2 = 0.9992), y = 38.261x − 1.2753 (r^2 = 0.9688), and y = 80.334x + 1.7436 (r^2 = 0.9987), respectively, where y is the peak area and x is the concentration of the analyte. The identity of AAIa was confirmed with synthesized standards provided by Minghua Xu (Shanghai Institute of Materia Medica, Shanghai, China)."}, "[3]": {"system": "X1 (+1 to −2867 of CYP1A1) segment of the CYP1A promoter", "assay": "Luciferase reporter assay pGL4.10-X1 in HepG2 cells", "type": "cell-based, human", "conditions": "baicalin 1, 10 or 50 μM, BNF 50 μM, normalized to renilla luciferase", "source_text": "(§3) Two pGL4.10 luciferase plasmids containing X1 (+1 to −2867 of CYP1A1) and X2 (−21,148 to −24,409 of CYP1A1; Figure 6A) segments were transfected into HepG2 cells to investigate the effects of baicalin.\n(§4) Figure 6 Effects of baicalin on the AhR-mediated activation of different segments of the CYP1A promoter in HepG2 cells. (A) Location of two insert segments, X1 and X2; and (B) Effects of baicalin and BNF on the luciferase activity of pGL4.10-X1; (C) Effects of baicalin and BNF on the luciferase activity of pGL4.10-X2. Luciferase activity was determined by firefly luciferase assay with data normalized to renilla luciferase activity. The results are expressed as the activity in drug treatment groups relative to that of the vehicle control. Each value is expressed as the mean ± SD. * p < 0.05, ** p < 0.01, *** p < 0.001 versus the plasmid only group. […]\n(§5) HepG2 cells were seeded at a density of 1.0 × 10^5 cells/mL in 6-well plates to achieve ~50% confluence the next day and were then transfected with pGL4.10-X1/2 plasmids using Lipofectamine 2000 (Invitrogen). […] Thereafter, cells were collected and further assayed for firefly luciferase activity, which was normalized to the activity of renilla luciferase, using the Dual-Luciferase Reporter Assay System (Promega, Madison, WI, USA) and a Biotek Synergy 4 Microplate reader (Biotek, Winooski, VT, USA). […]"}, "[4]": {"system": "X2 (−21,148 to −24,409 of CYP1A1) segment of the CYP1A promoter", "assay": "Luciferase reporter assay pGL4.10-X2 in HepG2 cells", "type": "cell-based, human", "conditions": "baicalin 1, 10 or 50 μM, BNF 50 μM, normalized to renilla luciferase", "source_text": "as §3, §4, §5"}, "[5]": {"system": "CYP1A2", "assay": "Screening of herbal compounds for CYP1A2 induction in Fa2N-4 cells (mRNA, real-time PCR)", "type": "cell-based, human", "conditions": "10 μM, compared among seven herbal compounds", "description": "To screen CYP1A2 inducers, Fa2N-4 cells, a non-tumorigenic immortalized human hepatic cell line, were treated with seven different herbal compounds.\nFigure 1 Screening of herbal compounds for their activities in inducing CYP1A2 in Fa2N-4 cells. Cells were pre-treated with candidate compounds at 10 μM. CYP1A2 mRNA was quantified by real-time PCR. con: control (negative control); 1: omeprazole (positive control); 2: kaempferide; 3: catalpol; 4: isorhamnetin; 5: ferulic acid; 6: ligustrazine; 7: astragaloside; 8: baicalin. *** p < 0.001 versus the negative control.\n(§6) The immortalized hepatocyte cell line Fa2N-4 (Xenotech, Kansas City, KS, USA) was maintained in BEGM Bullet kit medium with 10% heat inactivated fetal bovine serum (FBS) and 1% antibiotic-antimycotic solution (Invitrogen, Carlsbad, CA, USA) at 37 °C in a humidified atmosphere of 95% air and 5% CO2. Fa2N-4 cells were plated in 6-well plates to achieve ~80% confluence next day. Cells were collected at 24 h after treatment with vehicle or baicalin (0–100 μM) in the presence or absence of 3ʹ,4ʹ-DMF (2 μM)."}, "[6]": {"assay": "Levels of AAI and AAIa in mouse liver and kidney (HPLC)", "type": "in vivo, C57BL/6 mice", "conditions": "baicalin pretreatment; 30 min after AAI 10 mg/kg i.p.; versus AAI group", "description": "as §1\nTo examine whether the change in pharmacokinetics of AAI upon baicalin pretreatment was due to changes in the tissue distribution of AAI, the levels of AAI and AAIa in the livers and kidneys were measured by HPLC.\nas §2\nThe quantification of AAI and its metabolite AAIa was carried out with a Waters 9625 HPLC system (Sunnyvale, CA, USA). […]"}, "[7]": {"system": "CYP1A1", "assay": "CYP1A1 mRNA and protein expression in Fa2N-4 cells (real-time PCR, Western blot)", "type": "cell-based, human", "conditions": "24 h", "description": "as §6"}, "[8]": {"system": "CYP1A1", "assay": "Hepatic CYP1A1 mRNA and protein expression in mice", "type": "in vivo, mouse", "conditions": "baicalin 80 mg/kg daily for 3 days"}, "[9]": {"system": "CYP1A2", "conditions": "mice"}, "[10]": {"system": "CYP1A2", "type": "cell-based, human", "conditions": "Fa2N-4 cells, DMF 2 μM with baicalin, 24 h", "description": "as §6"}, "[11]": {"conditions": "AAI 10 mg/kg i.p. after baicalin 80 mg/kg daily for 3 days"}, "[12]": {"conditions": "AAI 10 mg/kg i.p. after baicalin 160 mg/kg daily for 3 days"}, "[13]": {"conditions": "baicalin 80 or 160 mg/kg daily for 3 days, then AAI 10 mg/kg i.p. on day 4, versus AAI only"}, "[14]": {"conditions": "baicalin pretreatment, then AAI 10 mg/kg i.p., versus AAI group"}},
  "data": [
    {"smiles": "COc1cccc2c1cc([N+](=O)[O-])c1c(C(=O)O)cc3c(c12)OCO3", "note": "[AAI, aristolochic acid I]", "values": [
      {"measurement": "kidney lesions (H&E histopathology)", "setting": "[1]; AAI 10 mg/kg i.p., seven days after AAI administration", "result": "extensive tubular necrosis, and tubular dilation"},
      {"measurement": "AUC", "setting": "[2]; [11]", "result": "759.39 ± 23.26 ** min·μg/mL"},
      {"measurement": "Cmax", "setting": "[2]; [11]", "result": "4430 ± 240", "unit": "ng/mL"},
      {"measurement": "Tmax", "setting": "[2]; [11]", "result": "10.00 ± 0", "unit": "min"},
      {"measurement": "t1/2", "setting": "[2]; [11]", "result": "77.96 ± 6.84", "unit": "min"},
      {"measurement": "AUC", "setting": "[2]; [12]", "result": "710.07 ± 33.95 *** min·μg/mL"},
      {"measurement": "Cmax", "setting": "[2]; [12]", "result": "3890 ± 430", "unit": "ng/mL"},
      {"measurement": "Tmax", "setting": "[2]; [12]", "result": "9 ± 2.24", "unit": "min"},
      {"measurement": "t1/2", "setting": "[2]; [12]", "result": "80.83 ± 3.02", "unit": "min"},
      {"measurement": "AUC", "setting": "[2]; AAI 10 mg/kg i.p., no baicalin", "result": "844.96 ± 40.12", "unit": "µg·min/mL"},
      {"measurement": "Cmax", "setting": "[2]; AAI 10 mg/kg i.p., no baicalin", "result": "4990 ± 410", "unit": "ng/mL"},
      {"measurement": "Tmax", "setting": "[2]; AAI 10 mg/kg i.p., no baicalin", "result": "10.00 ± 0", "unit": "min"},
      {"measurement": "t1/2", "setting": "[2]; AAI 10 mg/kg i.p., no baicalin", "result": "78.68 ± 12.88", "unit": "min"}
    ]},
    {"smiles": "O=c1cc(-c2ccccc2)oc2ccc3ccccc3c12", "note": "[BNF, β-Naphthoflavone, reference compound]", "values": [
      {"measurement": "luciferase activity of pGL4.10-X1 relative to vehicle control", "setting": "[3]", "result": "increased the luciferase activity"},
      {"measurement": "luciferase activity of pGL4.10-X2 relative to vehicle control", "setting": "[4]", "result": "increased the luciferase activity"}
    ]},
    {"smiles": "O=C(O)[C@H]1O[C@@H](Oc2cc3oc(-c4ccccc4)cc(=O)c3c(O)c2O)[C@H](O)[C@@H](O)[C@@H]1O", "note": "[baicalin]", "values": [
      {"measurement": "CYP1A2 gene expression at the mRNA level (induction)", "setting": "[5]", "result": "most potent compound in inducing CYP1A2 gene expression"},
      {"measurement": "blood urea nitrogen (BUN) induced by AAI", "setting": "[1]; [13]", "result": "significantly reduced"},
      {"measurement": "creatinine (CRE) induced by AAI", "setting": "[1]; [13]", "result": "significantly reduced"},
      {"measurement": "kidney lesions (H&E histopathology)", "setting": "[1]; baicalin pretreatment for 3 days, then AAI 10 mg/kg i.p., versus AAI group", "result": "fewer lesions"},
      {"measurement": "effect of pretreatment on the level of AAI in mice (plasma, AUC)", "setting": "[2]; [14]", "result": "markedly decreased"},
      {"measurement": "effect of pretreatment on the level of AAIa in the plasma", "setting": "[2]; [14]", "result": "higher"},
      {"measurement": "effect of pretreatment on the level of AAI in livers and kidneys", "setting": "[6]", "result": "reduced levels"},
      {"measurement": "effect of pretreatment on the level of AAIa in livers and kidneys", "setting": "[6]", "result": "reduced levels"},
      {"measurement": "CYP1A1 expression at mRNA and protein level", "setting": "[7]; 100 μM", "result": "increased"},
      {"measurement": "CYP1A1 expression", "setting": "[7]; 10 or 50 μM", "result": "relatively mild effect"},
      {"measurement": "CYP1A1 expression in the liver at mRNA and protein level", "setting": "[8]", "result": "pronouncedly increased"},
      {"measurement": "luciferase activity of pGL4.10-X1 relative to vehicle control", "setting": "[3]", "result": "increased the luciferase activity"},
      {"measurement": "luciferase activity of pGL4.10-X2 relative to vehicle control", "setting": "[4]", "result": "increased the luciferase activity"},
      {"measurement": "CYP1A2 expression in the liver at mRNA and protein level", "setting": "[9]; baicalin 80 mg/kg daily for 3 days", "result": "pronouncedly increased"}
    ]},
    {"smiles": "COc1ccc(-c2cc(=O)c3ccccc3o2)cc1OC", "note": "[DMF, 3ʹ,4ʹ-dimethoxyflavone, reference compound]", "values": [
      {"measurement": "effect on baicalin-induced CYP1A2 expression", "setting": "[10]", "result": "abolished"},
      {"measurement": "effect on baicalin-induced CYP1A1 expression", "setting": "[7]; DMF 2 μM with baicalin", "result": "abolished"}
    ]},
    {"smiles": "Oc1ccc(/C=C/c2cc(O)cc(O)c2)cc1", "note": "[RES, resveratrol, reference compound]", "values": [
      {"measurement": "effect on induction of hepatic CYP1A2 by baicalin", "setting": "[9]; RES 50 mg/kg with baicalin 80 mg/kg daily for 3 days", "result": "pronouncedly attenuated"}
    ]}
  ]
}
